Results taken from US8609727B2, “Dicarboxylic acid derivatives and their use” (Bayer Intellectual Property GmbH, priority 2005, dated 2013).

What was measured:
saphenous artery rings = test: Vasorelaxant effect in vitro (phenylephrine-contracted artery rings); type: cell-based, Rabbits; details: rabbit saphenous artery rings, contraction induced by phenylephrine
Experimental: B-1. Vasorelaxant Effect In Vitro:
Rabbits are anaesthetized and sacrificed by intravenous injection of thiopental sodium (about 50 mg/kg) and exsanguinated. The saphenous artery is removed and divided into rings 3 mm wide. The rings are mounted singly on in each case a pair of triangular hooks open at the end and made of 0.3 mm-thick special wire (Remanium®). Each ring is placed under an initial tension in 5 ml organ baths with Krebs-Henseleit solution which is at 37° C., is gassed with 95% O2/5% CO2 and has the following composition: NaCl 119 mM; KCl 4.8 mM; CaCl2×2H2O 1 mM; MgSO4×7H2O 1.4 mM; KH2PO4 1.2 mM; NaHCO3 25 mM; glucose 10 mM; bovine serum albumin 0.001%. The force of contraction is detected with Statham UC2 cells, amplified and digitized via A/D converters (DAS-1802 HC, Keithley Instruments, Munich) and recorded in parallel on chart recorders. Contractions are induced by addition of phenylephrine.
After several (generally 4) control cycles, the substance to be investigated is added in each further run in increasing dosage, and the height of the contraction achieved under the influence of the test substance is compared with the height of the contraction reached in the last preceding run. The concentration necessary to reduce the contraction reached in the preceding control by 50% is calculated from this (IC50). The standard application volume is 5 μl. The proportion of DMSO in the bath solution corresponds to 0.1%.

conscious SH rats = test: Radiotelemetric measurement of blood pressure and heart rate on conscious SH rats; type: in vivo, spontaneously hypertensive rats (SH rats); details: oral administration of 0.3 mg/kg
From the text: B-3. Radiotelemetric Measurement of Blood Pressure and Heart Rate on Conscious SH Rats
A commercially available telemetry system from Data Sciences International DSI, USA, is employed for the measurements on conscious SH rats described below.
The system consists of 3 main components: (1) implantable transmitter, (2) receiver which is linked via a multiplexer to a (3) data acquisition computer. The telemetry system makes it possible to record continuously the blood pressure and heart rate on conscious animals in their usual habitat.
The investigations are carried out on adult female spontaneously hypertensive rats (SH rats) with a body weight of >200 g. After transmitter implantation, the experimental animals are housed singly in type 3 Makrolon cages. They have free access to standard feed and water. […]
The telemetry measuring unit is configured for 24 animals. Each experiment is recorded under an experiment number.
Each of the instrumented rats living in the system is assigned a separate receiving antenna (1010 Receiver, DSI). […] The emitted signals can be detected online by a data acquisition system (Dataquest™ A.R.T. for Windows, DSI) and be appropriately processed. […]
In the standard procedure, the following are measured for 10-second periods in each case: (1) systolic blood pressure (SBP), (2) diastolic blood pressure (DBP), (3) mean arterial pressure (MAP) and (4) heart rate (HR). […]

[1] = target: T1, Haem-free sGC (recombinant soluble guanylate cyclase) (Rattus norvegicus, UniProt P20595); test: Stimulation of recombinant soluble guanylate cyclase (sGC) in vitro, haem-free enzyme; type: biochemical
T1 construct: made in house; host or cells: Sf9 insect cells (baculovirus)
T1 sequence (P20595 1-619): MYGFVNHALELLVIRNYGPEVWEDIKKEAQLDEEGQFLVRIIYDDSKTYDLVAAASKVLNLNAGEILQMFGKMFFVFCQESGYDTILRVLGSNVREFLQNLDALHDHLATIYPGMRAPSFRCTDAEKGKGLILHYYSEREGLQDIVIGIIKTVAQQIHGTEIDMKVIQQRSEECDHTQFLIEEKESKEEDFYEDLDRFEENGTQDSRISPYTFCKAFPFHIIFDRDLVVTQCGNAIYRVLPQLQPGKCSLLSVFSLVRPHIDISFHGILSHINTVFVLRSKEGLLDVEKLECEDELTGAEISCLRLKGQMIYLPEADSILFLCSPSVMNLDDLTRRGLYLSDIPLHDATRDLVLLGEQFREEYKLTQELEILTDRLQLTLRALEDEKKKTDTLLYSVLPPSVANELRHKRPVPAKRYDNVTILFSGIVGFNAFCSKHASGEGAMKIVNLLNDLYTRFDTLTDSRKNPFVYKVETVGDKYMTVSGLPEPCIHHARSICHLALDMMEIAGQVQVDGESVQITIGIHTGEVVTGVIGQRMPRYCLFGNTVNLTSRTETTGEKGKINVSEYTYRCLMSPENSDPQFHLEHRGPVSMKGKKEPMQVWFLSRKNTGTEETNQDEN
T1 sequence (P19686 1-690 partner): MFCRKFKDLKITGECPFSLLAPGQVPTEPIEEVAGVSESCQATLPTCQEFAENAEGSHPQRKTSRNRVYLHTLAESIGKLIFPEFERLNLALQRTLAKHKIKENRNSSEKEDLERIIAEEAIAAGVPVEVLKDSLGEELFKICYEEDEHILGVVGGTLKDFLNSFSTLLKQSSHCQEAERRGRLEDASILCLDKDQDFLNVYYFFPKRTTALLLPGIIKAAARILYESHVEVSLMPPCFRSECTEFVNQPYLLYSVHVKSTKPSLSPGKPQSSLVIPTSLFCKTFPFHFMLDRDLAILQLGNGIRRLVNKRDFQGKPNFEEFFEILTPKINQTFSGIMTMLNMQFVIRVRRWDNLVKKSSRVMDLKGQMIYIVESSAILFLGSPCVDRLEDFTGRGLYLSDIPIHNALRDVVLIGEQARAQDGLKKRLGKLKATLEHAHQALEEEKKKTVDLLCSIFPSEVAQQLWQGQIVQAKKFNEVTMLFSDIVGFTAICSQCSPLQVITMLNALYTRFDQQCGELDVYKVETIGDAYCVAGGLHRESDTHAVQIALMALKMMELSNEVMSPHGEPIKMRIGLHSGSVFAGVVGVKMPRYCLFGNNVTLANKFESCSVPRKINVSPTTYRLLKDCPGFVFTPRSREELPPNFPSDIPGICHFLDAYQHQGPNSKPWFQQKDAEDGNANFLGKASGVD
Experimental: (§1) B-2. Stimulation of Recombinant Soluble Guanylate Cyclase (sGC) In Vitro:
Investigations on the stimulation of recombinant soluble guanylate cyclase (sGC) by the compounds according to the invention with and without sodium nitroprusside, and with and without the haem-dependent sGC inhibitor 1H-1,2,4-oxadiazole-(4,3a)-quinoxalin-1-one (ODQ) are carried out by the method described in detail in the following reference: M. Hoenicka, E. M. Becker, H. Apeler, T. Sirichoke, H. Schroeder, R. Gerzer and J.-P. Stasch, “Purified soluble guanylyl cyclase expressed in a baculovirus/Sf9 system: Stimulation by YC-1, nitric oxide, and […]”, J. Mol. Med. 77 (1999), 14-23. The haem-free guanylate cyclase is obtained by adding Tween 20 to the sample buffer (0.5% in the final concentration).
(§2) The activation of sGC by a test substance is reported as n-fold stimulation of the basal activity.

[2] = target: T2, Haem-containing sGC (recombinant soluble guanylate cyclase) (Rattus norvegicus, UniProt P20595); test: Stimulation of recombinant soluble guanylate cyclase (sGC) in vitro, haem-containing enzyme; type: biochemical
T2 construct: made in house; host or cells: Sf9 insect cells (baculovirus)
T2 sequence (P20595 1-619): T1 sequence (P20595 1-619)
T2 sequence (P19686 1-690 partner): T1 sequence (P19686 1-690 partner)
From the text: as §1
Hoenicka, E. M. Becker, H. Apeler, T. Sirichoke, H. Schroeder, R. Gerzer and J.-P. Stasch, “Purified soluble guanylyl cyclase expressed in a baculovirus/Sf9 system: Stimulation by YC-1, nitric oxide, and carbon oxide”, J. Mol. Med. 77 (1999), 14-23. The haem-free guanylate cyclase is obtained by adding Tween 20 to the sample buffer (0.5% in the final concentration).
as §2

CCCCCCOc1ccccc1/C=C/C(CCc1ccc(C(=O)O)cc1)Cc1ccc(C(=O)O)cc1 (racemic) [Example 20, 4-{(4E)-3-(4-Carboxybenzyl)-5-[2-(hexyloxy)phenyl]pent-4-en-1-yl}benzoic Acid]
IC50 (saphenous artery rings; Oryctolagus cuniculus): 0.7 nM | Period of blood pressure reduction (conscious SH rats): 11 h | Reduction in blood pressure (conscious SH rats): marked reduction in blood pressure

O=c1onc2cnc3ccccc3n12 [ODQ, 1H-1,2,4-oxadiazole-(4,3a)-quinoxalin-1-one, reference compound]
Stimulation (n-fold) Haem-free sGC with ODQ alone ([1]; 10 μM ODQ, 0.0 μM Example 5): 2.0 n-fold | Stimulation (n-fold) Haem-containing sGC with ODQ alone ([2]; 10 μM ODQ, 0.0 μM Example 5): 38.8 n-fold

O=C(O)c1ccc(CCC(/C=C/c2ccccc2OCCCCCc2ccccc2)Cc2ccc(C(=O)O)cc2)cc1 (racemic) [Example 5, 4-((4E)-3-(4-Carboxybenzyl)-5-{2-[(5-phenylpentyl)oxy]phenyl}pent-4-en-1-yl)benzoic Acid]
IC50 (saphenous artery rings): 4.9 nM | Stimulation (n-fold) Haem-free sGC Basal ([1]; 0.001 μM Example 5): 19.2 n-fold | Stimulation (n-fold) Haem-free sGC +10 μM ODQ ([1]; 0.001 μM Example 5 +10 μM ODQ): 18.4 n-fold | Stimulation (n-fold) Haem-free sGC Basal ([1]; 0.01 μM Example 5): 105.8 n-fold | Stimulation (n-fold) Haem-free sGC +10 μM ODQ ([1]; 0.01 μM Example 5 +10 μM ODQ): 100.5 n-fold | Stimulation (n-fold) Haem-free sGC Basal ([1]; 0.1 μM Example 5): 185.3 n-fold | Stimulation (n-fold) Haem-free sGC +10 μM ODQ ([1]; 0.1 μM Example 5 +10 μM ODQ): 170.4 n-fold | Stimulation (n-fold) Haem-free sGC Basal ([1]; 1 μM Example 5): 201.2 n-fold | Stimulation (n-fold) Haem-free sGC +10 μM ODQ ([1]; 1 μM Example 5 +10 μM ODQ): 189.2 n-fold | Stimulation (n-fold) Haem-free sGC Basal ([1]; 10 μM Example 5): 203.1 n-fold | Stimulation (n-fold) Haem-free sGC +10 μM ODQ ([1]; 10 μM Example 5 +10 μM ODQ): 180.7 n-fold | Stimulation (n-fold) Haem-containing sGC Basal ([2]; 0.001 μM Example 5): 3.5 n-fold | Stimulation (n-fold) Haem-containing sGC +0.1 μM DEA/NO ([2]; 0.001 μM Example 5 +0.1 μM DEA/NO): 88.3 n-fold | Stimulation (n-fold) Haem-containing sGC +10 μM ODQ ([2]; 0.001 μM Example 5 +10 μM ODQ): 40.3 n-fold | Stimulation (n-fold) Haem-containing sGC Basal ([2]; 0.01 μM Example 5): 17.2 n-fold | Stimulation (n-fold) Haem-containing sGC +0.1 μM DEA/NO ([2]; 0.01 μM Example 5 +0.1 μM DEA/NO): 102.9 n-fold | Stimulation (n-fold) Haem-containing sGC +10 μM ODQ ([2]; 0.01 μM Example 5 +10 μM ODQ): 83.0 n-fold | Stimulation (n-fold) Haem-containing sGC Basal ([2]; 0.1 μM Example 5): 35.1 n-fold | Stimulation (n-fold) Haem-containing sGC +0.1 μM DEA/NO ([2]; 0.1 μM Example 5 +0.1 μM DEA/NO): 123.1 n-fold | Stimulation (n-fold) Haem-containing sGC +10 μM ODQ ([2]; 0.1 μM Example 5 +10 μM ODQ): 149.5 n-fold | Stimulation (n-fold) Haem-containing sGC Basal ([2]; 1 μM Example 5): 44.2 n-fold | Stimulation (n-fold) Haem-containing sGC +0.1 μM DEA/NO ([2]; 1 μM Example 5 +0.1 μM DEA/NO): 124.1 n-fold | Stimulation (n-fold) Haem-containing sGC +10 μM ODQ ([2]; 1 μM Example 5 +10 μM ODQ): 162.1 n-fold | Stimulation (n-fold) Haem-containing sGC Basal ([2]; 10 μM Example 5): 59.5 n-fold | Stimulation (n-fold) Haem-containing sGC +0.1 μM DEA/NO ([2]; 10 μM Example 5 +0.1 μM DEA/NO): 152.0 n-fold | Stimulation (n-fold) Haem-containing sGC +10 μM ODQ ([2]; 10 μM Example 5 +10 μM ODQ): 171.2 n-fold | Synergy of combination with NO donor DEA/NO on sGC stimulation ([2]; combination with DEA/NO): no synergistic effect

COc1ccccc1/C=C/C(CCc1ccc(C(=O)O)cc1)Cc1ccc(C(=O)O)cc1 (racemic) [Example 13, 4-[(4E)-3-(4-Carboxybenzyl)-5-(2-methoxyphenyl)pent-4-en-1-yl]benzoic Acid]
IC50 (saphenous artery rings; Oryctolagus cuniculus): 52.2 nM

O=C(O)c1ccc(CCC(/C=C/c2ccccc2OCc2ccc(OC(F)(F)F)cc2)Cc2ccc(C(=O)O)cc2)cc1 (stereo not shown) [Example 45]
IC50 (saphenous artery rings; Oryctolagus cuniculus): 6 nM
